Experimental data reported in US20080275058A1, “N-Substituted-1H-Quinoline-2,4-Diones, Preparation Method Thereof, And Pharmaceutical Composition Containing The Same” (KOREA RESEARCH INSTITUTE OF CHEMICAL TECHNOLOGY, priority 2005, published 2008).
Like-named read-outs stand apart in the source and are kept apart here.

Columns and labels:
[1] = molecular target: T1, 5-HT7 (Homo sapiens, UniProt P34969); experiment: Radioligand binding, 5-HT7 ([3H]LSD); conditions: Table 4; [3H]LSD 3 nM; read-out: Binding affinity, IC50 (nM) 5-HT7
T1 construct: purchased Euroscreen/BioSignal Packard Inc

[2] = molecular target: T2, hD4.2 receptor (Homo sapiens, UniProt P21917, DEL265-296); experiment: Radioligand binding, dopamine D4 ([3H]YM-09151-2); conditions: Table 4; [3H]YM-09151-2 0.06 nM; read-out: Binding affinity, IC50 (nM) D4
T2 construct: purchased BioSignal Packard Inc., Montreal, Canada
T2 sequence (P21917 with tags, fused parts or gaps DEL265-296): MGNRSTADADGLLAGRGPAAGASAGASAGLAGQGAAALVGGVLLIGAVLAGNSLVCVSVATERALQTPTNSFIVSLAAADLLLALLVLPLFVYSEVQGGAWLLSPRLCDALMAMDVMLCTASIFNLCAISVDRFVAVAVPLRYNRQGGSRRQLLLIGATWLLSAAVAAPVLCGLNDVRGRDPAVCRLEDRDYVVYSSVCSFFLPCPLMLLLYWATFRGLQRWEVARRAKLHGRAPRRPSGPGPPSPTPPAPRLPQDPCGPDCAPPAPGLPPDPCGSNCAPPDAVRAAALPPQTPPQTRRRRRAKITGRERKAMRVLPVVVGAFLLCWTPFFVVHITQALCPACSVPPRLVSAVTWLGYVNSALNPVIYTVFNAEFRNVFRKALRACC
Summary of the method: (§1)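 Membrane competition binding with [3H]spiperone (1 nM) for hD2L and hD3, or [3H]YM-09151-2 (0.06 nM) for hD4.2, each in receptor-specific Tris-HCl pH 7.4 buffer containing Mg2+/EDTA (D3 and D4 also with K+, Ca2+; D3 with 120 mM NaCl). Compounds were tested at 7-8 concentrations in duplicate, and IC50 was derived by nonlinear regression across three assays.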

[3] = molecular target: T3, Human serotonin 5-HT6 receptor (Homo sapiens, UniProt P50406); experiment: [3H]LSD binding assay on cloned 5-HT6 receptor membranes
T3 construct: made in house; host or cells: insect Sf21 cells (baculovirus vector BacPAK8)

[4] = molecular target: D1 (Homo sapiens, UniProt P21728); experiment: Radioligand binding, dopamine D1; conditions: Table 4; read-out: Binding affinity, IC50 (nM) D1
[5] = molecular target: T4, 5-HT2c (Homo sapiens, UniProt P28335); experiment: Radioligand binding, 5-HT2c ([3H]Mesulergine); conditions: Table 4; [3H]Mesulergine 1 nM; read-out: Binding affinity, IC50 (nM) 5-HT2c
T4 construct: purchased Euroscreen/BioSignal Packard Inc
T4 sequence (P28335 33-458): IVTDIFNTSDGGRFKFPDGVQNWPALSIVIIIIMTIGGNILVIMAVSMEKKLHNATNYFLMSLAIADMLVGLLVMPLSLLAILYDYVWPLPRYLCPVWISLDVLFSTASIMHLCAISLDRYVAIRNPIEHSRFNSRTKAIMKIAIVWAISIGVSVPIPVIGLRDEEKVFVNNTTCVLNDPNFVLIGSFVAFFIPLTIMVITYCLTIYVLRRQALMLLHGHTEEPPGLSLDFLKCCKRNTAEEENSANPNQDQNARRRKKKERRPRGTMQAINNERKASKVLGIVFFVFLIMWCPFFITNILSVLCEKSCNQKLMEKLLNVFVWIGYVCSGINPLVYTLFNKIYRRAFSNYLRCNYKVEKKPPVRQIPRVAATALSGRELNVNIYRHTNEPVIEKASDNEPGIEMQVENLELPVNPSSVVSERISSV

[6] = test system: mice; experiment: Rotarod deficit in mice; format: in vivo, mouse
Description: (§2) The mouse was placed on a 1 inch diameter knurled plastic rod rotating at 6 rpm (Ugo-Basile, Milano, Italy), and the rotarod deficit (%) was obtained by counting the number of animals fallen from the rotating rod within 1 min [Dunham et al., 1957] at 60, 90 and 120 min after the injection of the compound according to the invention(200, 300 or 400 ? ). […] The compounds of the examples were suspended in 3% Tween 80 solution, and were administered (p.o.) 60 min before the testing.

[7] = Rotarod deficit in mice; format: in vivo, mouse; conditions: mouse, in vivo, po, unit printed as image, read-out: TD50 (median neurotoxic dose)
Description: as §2

[8] = molecular target: T5, hD3 (Homo sapiens, UniProt P35462); experiment: Radioligand binding, dopamine D3 ([3H]spiperone); conditions: Table 4; [3H]spiperone 1 nM; read-out: Binding affinity, IC50 (nM) D3
T5 construct: purchased BioSignal Packard Inc., Montreal, Canada
Summary of the method: as §1

[9] = molecular target: T6, hD2L (Homo sapiens, UniProt P14416); experiment: Radioligand binding, dopamine D2 ([3H]spiperone); conditions: Table 4; [3H]spiperone 1 nM; read-out: Binding affinity, IC50 (nM) D2
T6 construct: purchased BioSignal Packard Inc., Montreal, Canada
Summary of the method: as §1

[10] = molecular target: T7, 5-HT2a (Homo sapiens, UniProt P28223); experiment: Radioligand binding, 5-HT2a ([3H]Ketanserin); conditions: Table 4; [3H]Ketanserin 1 nM; read-out: Binding affinity, IC50 (nM) 5-HT2a
T7 construct: purchased Euroscreen/BioSignal Packard Inc

[11] = molecular target: T8, 5-HT1a (Homo sapiens, UniProt P08908); experiment: Radioligand binding, 5-HT1a ([3H]8-OH-DPAT); conditions: Table 4; [3H]8-OH-DPAT 0.5 nM; read-out: Binding affinity, IC50 (nM) 5-HT1a
T8 construct: purchased Euroscreen/BioSignal Packard Inc
T8 sequence (P08908 1-422): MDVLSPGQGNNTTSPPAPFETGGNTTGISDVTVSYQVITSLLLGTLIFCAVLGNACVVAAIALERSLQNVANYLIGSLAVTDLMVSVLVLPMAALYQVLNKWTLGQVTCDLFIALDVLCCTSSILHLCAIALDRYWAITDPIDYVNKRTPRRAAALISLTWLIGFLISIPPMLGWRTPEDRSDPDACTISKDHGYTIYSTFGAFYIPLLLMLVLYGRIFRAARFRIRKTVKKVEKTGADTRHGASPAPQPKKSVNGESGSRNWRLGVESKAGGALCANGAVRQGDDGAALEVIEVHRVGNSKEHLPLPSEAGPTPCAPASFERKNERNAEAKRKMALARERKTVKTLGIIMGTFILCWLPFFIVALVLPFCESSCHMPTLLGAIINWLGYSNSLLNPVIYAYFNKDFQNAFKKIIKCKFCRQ
Summary of the method: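 Binding was measured on commercial receptor membrane preparations, following the membrane supplier's own test protocol.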

[12] = Table 2, 1.87 nM [3H]LSD, 37 C, 60 min, read-out: IC50 (nM), binding affinity to the 5-HT6 receptor
[13] = Table 4, read-out: Binding affinity, IC50 (nM) 5-HT6

T7 sequence (P28223 whole entry): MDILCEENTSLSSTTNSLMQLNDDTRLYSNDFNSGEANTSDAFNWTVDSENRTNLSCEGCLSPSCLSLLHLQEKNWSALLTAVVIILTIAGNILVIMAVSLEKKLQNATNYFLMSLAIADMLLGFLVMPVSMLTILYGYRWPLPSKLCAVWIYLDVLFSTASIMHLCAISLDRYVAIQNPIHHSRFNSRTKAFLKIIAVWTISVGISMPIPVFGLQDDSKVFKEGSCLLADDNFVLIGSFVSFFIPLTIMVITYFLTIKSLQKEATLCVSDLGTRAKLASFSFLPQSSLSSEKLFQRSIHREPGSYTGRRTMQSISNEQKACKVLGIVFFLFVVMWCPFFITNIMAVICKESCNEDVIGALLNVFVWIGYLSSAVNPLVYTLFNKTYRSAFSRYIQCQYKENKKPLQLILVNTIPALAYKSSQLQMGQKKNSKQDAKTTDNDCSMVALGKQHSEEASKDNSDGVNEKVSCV
T6 sequence (P14416 whole entry): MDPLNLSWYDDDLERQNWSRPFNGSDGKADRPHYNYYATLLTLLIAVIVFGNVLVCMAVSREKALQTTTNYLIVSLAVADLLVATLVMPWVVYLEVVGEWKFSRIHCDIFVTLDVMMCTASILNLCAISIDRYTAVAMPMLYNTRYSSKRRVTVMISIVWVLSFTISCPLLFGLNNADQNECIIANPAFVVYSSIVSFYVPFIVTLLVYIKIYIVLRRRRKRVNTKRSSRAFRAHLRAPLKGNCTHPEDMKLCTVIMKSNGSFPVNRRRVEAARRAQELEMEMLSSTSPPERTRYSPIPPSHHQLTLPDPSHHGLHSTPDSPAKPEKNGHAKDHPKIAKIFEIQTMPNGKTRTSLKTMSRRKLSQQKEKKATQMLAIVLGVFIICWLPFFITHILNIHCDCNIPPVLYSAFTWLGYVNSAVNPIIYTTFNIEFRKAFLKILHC
D1, sequence (P21728 whole entry): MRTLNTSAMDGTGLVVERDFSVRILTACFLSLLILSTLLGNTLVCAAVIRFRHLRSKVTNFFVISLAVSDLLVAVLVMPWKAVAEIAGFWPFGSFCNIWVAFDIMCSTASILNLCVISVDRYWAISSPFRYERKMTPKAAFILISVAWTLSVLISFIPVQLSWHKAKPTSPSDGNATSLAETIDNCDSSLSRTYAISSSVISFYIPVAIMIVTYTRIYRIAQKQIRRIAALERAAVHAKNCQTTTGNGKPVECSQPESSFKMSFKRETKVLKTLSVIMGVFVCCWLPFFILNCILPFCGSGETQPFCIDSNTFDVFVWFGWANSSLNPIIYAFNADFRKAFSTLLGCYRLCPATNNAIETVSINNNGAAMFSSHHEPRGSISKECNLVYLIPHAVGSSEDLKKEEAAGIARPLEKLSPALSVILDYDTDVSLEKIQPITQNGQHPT
T1 sequence (P34969 whole entry): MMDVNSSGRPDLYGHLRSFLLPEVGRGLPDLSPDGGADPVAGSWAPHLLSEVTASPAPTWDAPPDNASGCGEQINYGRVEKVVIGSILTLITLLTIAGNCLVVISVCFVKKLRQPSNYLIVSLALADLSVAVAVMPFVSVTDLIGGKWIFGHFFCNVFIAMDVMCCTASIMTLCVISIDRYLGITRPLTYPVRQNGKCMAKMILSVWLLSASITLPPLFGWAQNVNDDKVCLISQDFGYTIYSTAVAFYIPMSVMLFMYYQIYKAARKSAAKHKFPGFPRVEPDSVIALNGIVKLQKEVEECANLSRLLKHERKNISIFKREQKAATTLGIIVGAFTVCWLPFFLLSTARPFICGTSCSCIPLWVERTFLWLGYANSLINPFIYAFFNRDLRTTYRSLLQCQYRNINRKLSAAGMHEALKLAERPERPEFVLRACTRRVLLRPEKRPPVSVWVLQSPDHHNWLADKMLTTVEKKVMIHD
T3 sequence (P50406 whole entry): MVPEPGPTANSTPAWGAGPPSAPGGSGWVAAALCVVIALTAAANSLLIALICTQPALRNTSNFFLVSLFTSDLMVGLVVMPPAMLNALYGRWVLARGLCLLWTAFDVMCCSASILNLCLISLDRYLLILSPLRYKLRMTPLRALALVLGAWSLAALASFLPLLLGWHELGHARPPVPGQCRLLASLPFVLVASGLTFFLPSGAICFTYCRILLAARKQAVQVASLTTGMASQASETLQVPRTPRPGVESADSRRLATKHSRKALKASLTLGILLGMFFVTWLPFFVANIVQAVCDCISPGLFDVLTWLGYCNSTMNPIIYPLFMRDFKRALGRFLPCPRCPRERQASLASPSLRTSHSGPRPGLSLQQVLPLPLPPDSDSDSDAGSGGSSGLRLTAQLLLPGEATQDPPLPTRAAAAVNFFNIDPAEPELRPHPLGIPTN
T5 sequence (P35462 whole entry): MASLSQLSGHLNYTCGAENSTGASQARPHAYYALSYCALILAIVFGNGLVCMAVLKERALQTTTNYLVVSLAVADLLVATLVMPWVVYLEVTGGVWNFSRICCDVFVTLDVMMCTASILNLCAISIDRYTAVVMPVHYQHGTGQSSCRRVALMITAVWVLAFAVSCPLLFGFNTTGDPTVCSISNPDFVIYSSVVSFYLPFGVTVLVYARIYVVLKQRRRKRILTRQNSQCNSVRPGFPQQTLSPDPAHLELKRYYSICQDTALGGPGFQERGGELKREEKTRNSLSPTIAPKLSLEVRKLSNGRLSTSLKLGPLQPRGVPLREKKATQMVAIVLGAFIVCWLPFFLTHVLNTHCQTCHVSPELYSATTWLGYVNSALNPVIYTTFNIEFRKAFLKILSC

| SMILES | IC50 [1] | IC50 [2] | IC50 [3, 12] | IC50 [3, 13] | binding affinity at 5-HT6 receptor labeled by [3H]LSD, in words ([3]; comment on Table 2) | IC50 [4] | IC50 [5] | Rotarod deficit (%) ([6]; 200 p.o. (dose unit not given)) | Rotarod deficit (%) ([6]; 300 p.o. (dose unit not given)) | Rotarod deficit (%) ([6]; 400 p.o. (dose unit not given)) | TD50 at 120 min [7] | IC50 [8] | IC50 [9] | IC50 [10] | IC50 [11] | melting point |
| --- | --- | --- | --- | --- | --- | --- | --- | --- | --- | --- | --- | --- | --- | --- | --- | --- |
| CN1CCN(c2cc(Cl)cc3c2C(=O)C(C)(c2ccccc2)C(=O)N3Cc2ccccc2)CC1 (stereo not shown) [Example 11, 1-Benzyl-7-chloro-3-methyl-5-(4-methyl-piperazin-1-yl)-3-phenyl-1H-quinoline-2,4-dione] | 2200 nM | > 10000 nM | 1.4 nM | 1.4 nM | significant affinities | 4670 nM | 514 nM | 0% | 0% | 0% | > 400 mg/kg | 678 nM | 844 nM | 1230 nM | 2590 nM | 138 to 140 °C |
| CC1(c2ccc(O)cc2)C(=O)c2c(N3CCNCC3)cc(Cl)cc2N(Cc2cccc(O)c2)C1=O (stereo not shown) [Example 28, 7-Chloro-1-(3-hydroxy-benzyl)-3-(4-hydroxy-phenyl)-3-methyl-5-piperazin-1-yl-1H-quinoline-2,4-dione] | > 10000 nM | > 10000 nM | 3 nM | 3 nM |  | > 10000 nM | > 10000 nM | 0% | 0% | 0% | > 400 mg/kg | > 1000 nM | > 10000 nM | > 10000 nM | > 10000 nM | 229 to 230 °C |
| COc1ccc(C2(C)C(=O)c3c(N4CCNCC4)cc(Cl)cc3N(Cc3cccc(OC)c3)C2=O)cc1 (stereo not shown) [Example 27, 7-Chloro-1-(3-methoxy-benzyl)-3-(4-methoxy-phenyl)-3-methyl-5-piperazin-1-yl-1H-quinoline-2,4-dione] | > 1000 nM | > 10000 nM | 2.3 nM | 2.3 nM |  | > 1000 nM | > 1000 nM | 0% | 0% | 0% | > 400 mg/kg | 2640 nM | > 1000 nM | > 1000 nM | > 10000 nM | 110 to 112 °C |
| CN1CCN(c2cc(Cl)cc3c2C(=O)C(C)(c2ccc(O)cc2)C(=O)N3Cc2ccccc2)CC1 (stereo not shown) [Example 2, 1-Benzyl-7-chloro-3-(4-hydroxy-phenyl)-3-methyl-5-(4-methyl-piperazin-1-yl)-1H-quinoline-2,4-dione] | 920 nM | > 10000 nM | 2.5 nM | 2.5 nM |  | 4970 nM | 487 nM | 0% | 0% | 0% | > 400 mg/kg | 589 nM | > 10000 nM | 2620 nM | > 10000 nM | 258 to 259 °C |
| CN1CCN(c2cc(Cl)cc3c2C(=O)C(C)(c2ccc(OCc4ccccc4)c(Br)c2)C(=O)N3Cc2ccccc2)CC1 (stereo not shown) [Example 12, 1-Benzyl-3-(4-benzyloxy-3-bromo-phenyl)-7-chloro-3-methyl-5-(4-methyl-piperazin-1-yl)-1H-quinoline-2,4-dione] | 136 nM | > 10000 nM | 9.2 nM | 9.2 nM |  | 1240 nM | 1290 nM | 0% | 0% | 0% | > 400 mg/kg | 153 nM | 6450 nM | 95 nM | 2520 nM | 95 to 97 °C |
